Assay results from ChEMBL document CHEMBL3879891, “Hydrazone compounds and their use” (2011).

Experiments:
[1] = target: T1, Transient receptor potential cation channel subfamily M member 5 (Mus musculus) (UniProt Q9JJH7); test: Activation of TRPM5 in mouse GLUTag cells assessed as induction of 0.3 mM glucose-mediated GLP-1 secretion after 2 hrs by ELISA; assay type: cell-based
T1 sequence (whole entry): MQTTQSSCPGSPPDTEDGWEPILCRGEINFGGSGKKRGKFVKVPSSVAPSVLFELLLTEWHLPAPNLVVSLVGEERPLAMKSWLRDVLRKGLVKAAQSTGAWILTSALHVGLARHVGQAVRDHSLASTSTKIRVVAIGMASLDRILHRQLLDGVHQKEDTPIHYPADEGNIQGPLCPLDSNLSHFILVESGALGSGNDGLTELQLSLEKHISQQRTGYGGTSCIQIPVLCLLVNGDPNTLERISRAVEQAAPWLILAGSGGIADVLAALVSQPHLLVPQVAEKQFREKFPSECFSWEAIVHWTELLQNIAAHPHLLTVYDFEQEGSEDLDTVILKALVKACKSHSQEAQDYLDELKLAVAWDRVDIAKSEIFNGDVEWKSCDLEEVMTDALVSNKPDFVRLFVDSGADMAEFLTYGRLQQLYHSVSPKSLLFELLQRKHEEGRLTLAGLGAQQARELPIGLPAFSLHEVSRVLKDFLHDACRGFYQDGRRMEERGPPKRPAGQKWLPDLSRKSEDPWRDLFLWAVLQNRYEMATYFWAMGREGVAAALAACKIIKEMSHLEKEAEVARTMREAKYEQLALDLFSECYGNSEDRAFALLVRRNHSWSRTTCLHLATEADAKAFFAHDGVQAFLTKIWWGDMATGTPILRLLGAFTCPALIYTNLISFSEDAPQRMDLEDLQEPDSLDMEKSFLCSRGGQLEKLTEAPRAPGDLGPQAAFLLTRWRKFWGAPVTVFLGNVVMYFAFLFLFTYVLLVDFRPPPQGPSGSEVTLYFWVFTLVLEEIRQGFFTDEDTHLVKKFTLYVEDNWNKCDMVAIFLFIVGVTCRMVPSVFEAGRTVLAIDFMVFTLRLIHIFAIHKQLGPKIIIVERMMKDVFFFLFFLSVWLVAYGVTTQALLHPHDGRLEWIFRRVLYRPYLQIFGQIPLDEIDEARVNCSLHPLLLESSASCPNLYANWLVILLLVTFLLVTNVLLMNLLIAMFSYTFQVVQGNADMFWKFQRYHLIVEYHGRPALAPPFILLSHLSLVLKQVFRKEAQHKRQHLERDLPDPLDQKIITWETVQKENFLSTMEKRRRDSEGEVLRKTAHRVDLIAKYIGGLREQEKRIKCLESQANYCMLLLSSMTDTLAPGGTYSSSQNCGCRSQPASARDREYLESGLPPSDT

[2] = target: Transient receptor potential cation channel, subfamily M, member 5 (Rattus norvegicus) (UniProt A0A8I6AG64); test: Activation of TRPM5 in Sprague-Dawley rat primary islets assessed as induction of 12 mM glucose-mediated insulin secretion after 3 hrs by ELISA
Chain of Transient receptor potential cation channel, subfamily M, member 5 (Rattus norvegicus) (A0A8I6AG64 as listed by the source): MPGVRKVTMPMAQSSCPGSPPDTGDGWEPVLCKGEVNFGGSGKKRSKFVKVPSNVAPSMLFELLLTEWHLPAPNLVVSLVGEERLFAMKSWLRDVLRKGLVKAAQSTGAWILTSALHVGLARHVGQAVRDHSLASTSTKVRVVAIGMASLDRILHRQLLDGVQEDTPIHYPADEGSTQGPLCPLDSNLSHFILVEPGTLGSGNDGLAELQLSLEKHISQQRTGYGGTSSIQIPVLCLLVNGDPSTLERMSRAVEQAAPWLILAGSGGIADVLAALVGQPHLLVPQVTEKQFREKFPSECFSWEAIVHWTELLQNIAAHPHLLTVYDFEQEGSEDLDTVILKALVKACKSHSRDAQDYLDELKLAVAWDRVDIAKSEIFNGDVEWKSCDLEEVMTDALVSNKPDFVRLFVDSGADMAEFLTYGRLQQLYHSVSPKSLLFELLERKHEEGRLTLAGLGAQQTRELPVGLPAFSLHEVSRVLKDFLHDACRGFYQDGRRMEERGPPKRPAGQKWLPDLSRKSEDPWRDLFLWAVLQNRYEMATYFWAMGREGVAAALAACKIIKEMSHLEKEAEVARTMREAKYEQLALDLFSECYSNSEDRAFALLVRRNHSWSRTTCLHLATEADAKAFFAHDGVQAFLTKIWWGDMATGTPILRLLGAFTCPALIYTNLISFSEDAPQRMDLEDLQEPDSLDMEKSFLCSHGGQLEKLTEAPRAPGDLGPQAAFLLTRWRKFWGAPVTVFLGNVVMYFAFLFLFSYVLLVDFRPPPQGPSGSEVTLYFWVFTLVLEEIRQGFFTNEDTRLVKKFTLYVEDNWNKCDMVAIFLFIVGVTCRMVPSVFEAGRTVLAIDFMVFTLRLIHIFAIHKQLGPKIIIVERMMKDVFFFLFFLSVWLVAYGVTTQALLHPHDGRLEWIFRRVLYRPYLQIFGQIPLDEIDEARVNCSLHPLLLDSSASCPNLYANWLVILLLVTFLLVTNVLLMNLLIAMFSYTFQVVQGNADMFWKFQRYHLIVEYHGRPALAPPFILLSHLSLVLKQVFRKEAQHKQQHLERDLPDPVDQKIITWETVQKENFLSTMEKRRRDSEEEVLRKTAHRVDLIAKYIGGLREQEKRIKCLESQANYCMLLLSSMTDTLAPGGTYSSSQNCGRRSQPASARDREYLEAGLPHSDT

[3] = target: T1, Transient receptor potential cation channel subfamily M member 5 (Mus musculus); test: Activation of TRPM5 in SV40 expressing transgenic mouse Beta-TC-6 cells assessed as induction of 1 mM glucose-mediated insulin secretion after 2 hrs by ELISA

Measured: Activity

Cc1cc(/C=N/NC(=O)[C@@H]2C[C@H]2c2ccccc2)cc2cccnc12 (relative stereo)
active: [1] Dose-dependent effect | [2] Dose-dependent effect | [3] Dose-dependent effect
